In publication PMC9918429, “ATX-101, a cell-penetrating protein targeting PCNA, can be safely administered as intravenous infusion in patients and shows clinical activity in a Phase 1 study” (Oncogene, 2022):
“Also recorded” adds a separate entry of the source. Ends that are not written are not given here.

Experiments:
[1] = tested on: patients with advanced solid tumors; assay: Phase 1 first-in-human study, weekly intravenous ATX-101 infusion: adverse events, DLT, infusion-related reactions (CTCAE v4.03); format: in vivo
Protocol: Here we report results of the ATX-101 first-in-human study in patients with advanced solid tumors. This open-label, single arm Phase 1 study, consisting of two sub-studies, investigated 4 doses of ATX-101 (20, 30, 45, and 60 mg/m^2) administered intravenously every week. In a first, dose-escalation study pre-defined dose-limiting toxicities and PK were assessed (for DLT definition see Supplementary Table 1). If, after 6 weeks, no tumor progression was measured, treatment could be continued in a second, long-term follow-up study until disease progression or unacceptable toxicity with the primary objective safety/tolerability. Efficacy was a secondary endpoint in both sub-studies. The studies were registered in the Australian New Zealand Clinical Trials Registry (ANZCTR) under the following IDs: 375262 and 375319. Details on methods are given in the Supplementary information.
This Phase 1, open-label, single arm, first-in-human study consisted of two sub-studies. Study ATX101-01 was a dose escalation study in accordance with the traditional 3+3 escalation design^1. Patients were treated over 6 weeks when the first tumor assessment was done. In case of disease stabilization or tumor response, patients could continue treatment in the long-term follow-up study ATX101-02. The data analysis has been combined for both studies.
ATX-101 was administered weekly as intravenous infusion.
Due to the occurrence of infusion related reactions (IRR) in the first patient, a premedication was implemented for subsequent patients. Premedication was optimized by the Safety Monitoring Committee (SMC) during the study resulting in the final recommendation to administer corticosteroids, paracetamol, H1 and H2 inhibitors. This medication became standard practice in Cohort 3. Montelukast (anti-leukotriene) was added in Cohort 4. In addition, on each infusion day, the infusion rate had to be increased in 5 steps from 5 mg/h to a maximum of 120 mg/h.
ATX-101 was administered in 4 dosing cohorts. The starting dose was 20 mg/m², escalated to 30 mg/m², 45 mg/m² and 60 mg/m². An SMC, comprising all principal investigators and medical monitors of sponsor and CRO, recommended dose changes and modifications after the end of each completed cohort and during the entire study.
Toxicities were graded as mild, moderate, severe, life threatening or related to death using the Common Terminology Criteria for Adverse Events (CTCAE) Version 4.03. Safety assessments included the incidence of dose limiting toxicities (DLTs), treatment-emergent adverse events (TEAE), laboratory parameters, ECG, performance status, physical examinations. DLT were defined upfront, the DLT period included the first three treatment weeks.

advanced solid tumors = assay: Tumor assessment by investigators according to RECIST V1.1; format: in vivo, human
Protocol: Tumors were assessed by investigators according to RECIST V1.1 at baseline, after 6 weeks and every 3 months thereafter. Efficacy Population: patients with at least one tumor assessment (RECIST) after treatment start

[2] = Full-length peptide in cell culture media after peptide addition; format: in vitro ADME; details: cell cultures, 1–2 h after the peptide addition; unpublished data
cell cultures = details: cited from earlier work
[3] = Plasma pharmacokinetics of ATX-101 on first infusion day, non-compartmental (Phoenix WinNonlin); details: for tmax Median [Min;Max]: from infusion start
Protocol: Blood samples for a complete pharmacokinetic (PK) profile were collected on the first infusion day. On days 8, 15, and 36 samples were collected during the infusion only. Plasma trough levels were assessed on Days 3 and Day 43.
Primary PK Population: patients with at least 2 measurable plasma concentration time points after the end of infusion on D1

[4] = 30 mg/m^2 i.v. infusion, first infusion day, plasma, primary PK population, n = 1
[5] = 45 mg/m^2 i.v. infusion, first infusion day, plasma, primary PK population, mean (SD), n = 4
[6] = 60 mg/m^2 i.v. infusion, first infusion day, plasma, primary PK population, mean (SD), n = 6
[7] = 60 mg/m^2 i.v. infusion, first infusion day, plasma, primary PK population, mean (SD), n = 8

With “Ac-MDRWLVKWKKKRKIRRRRRRRRRRR (N-terminus assumed) [ATX-101]” as the substance, how does the “TEAE: Upper respiratory tract infection” value ([1]; Overall (n=25), Any Grade) read?
Its value is 3 (12.0) n (%).

What about the “TEAE: Abdominal pain upper” value ([1]; Overall (n=25), Grade 3) of the same substance?
The value was 1 (4.0) n (%).

What about the “TEAE: Anemia” value ([1]; Overall (n=25), Grade 3) of the same substance?
Its value is 4 (16.0) n (%).

And the “TEAE: Fatigue” value ([1]; Overall (n=25), Grade 3)?
Its value is 1 (4.0) n (%).

What about the “TEAE: Hyperglycemia” value ([1]; Overall (n=25), Grade 3) of the same substance?
The value was 2 (8.0) n (%).

And the “TEAE: Patients with at least one event” value ([1]; Overall (n=25), Grade 3)?
Its value is 15 (60.0) n (%).

What about the “Patients with infusion-related reactions (mild and moderate)” value ([1]; all 25 patients, 20-60 mg/m^2 weekly, despite premedication and stepwise infusion rate) of the same substance?
The value was 64%.

And the “TEAE of CTCAE grade 4/5” value ([1]; all cohorts (n=25))?
Its value is “CTCAEs grade 4/5 were not observed”.

What about the Maximum tolerated dose ([1]; doses up to 60 mg/m^2 weekly) of the same substance?
Its Maximum tolerated dose is “not reached”.

What about the “Dose-limiting toxicities (DLT)” value ([1]; in vivo) of the same substance?
The value was “not observed”.

And the “IRR Grade 1 (mild), number of patients with IRR” value ([1]; in vivo)?
The value was 9 (36.0) n (%).

And the “IRR Grade 1 (mild), total number of IRRs” value ([1]; in vivo)?
The value was 17 N.

What about the “IRR Grade 2 (moderate), number of patients with IRR” value ([1]; in vivo) of the same substance?
Its value is 13 (52.0) n (%).

And the “IRR Grade 2 (moderate), total number of IRRs” value ([1]; in vivo)?
Its value is 45 N.

What about the “IRR any grade, total number of IRRs” value ([1]; in vivo) of the same substance?
The value was 62 N.

What about the “IRR: Patients with at least one event, number of patients with IRR” value ([1]; in vivo) of the same substance?
Its value is 16 (64.0) n (%).

And the “Patients with IRR in whom IRR was seen on the first infusion day” value ([1]; in vivo)?
The value was 83%.

What about the “TEAE: Abdominal pain upper” value ([1]; in vivo) of the same substance?
Its value is 3 (12.0) n (%).

And the “TEAE: Anemia” value ([1]; in vivo)?
Its value is 8 (32.0) n (%).

And the “TEAE: Diarrhea” value ([1]; in vivo)?
Its value is 7 (28.0) n (%).

And the “TEAE: Dysgeusia” value ([1]; in vivo)?
The value was 3 (12.0) n (%).

What about the “TEAE: Erythema” value ([1]; in vivo) of the same substance?
Its value is 3 (12.0) n (%).

What about the “TEAE: Fatigue” value ([1]; in vivo) of the same substance?
The value was 12 (48.0) n (%).

What about the “TEAE: Headache” value ([1]; in vivo) of the same substance?
Its value is 3 (12.0) n (%).

And the “TEAE: Hyperglycemia” value ([1]; in vivo)?
Its value is 3 (12.0) n (%).

What about the “TEAE: Infusion related reactions” value ([1]; in vivo) of the same substance?
Its value is 16 (64.0) n (%).

What about the “TEAE: Insomnia” value ([1]; in vivo) of the same substance?
The value was 3 (12.0) n (%).

What about the “TEAE: Nausea” value ([1]; in vivo) of the same substance?
Its value is 4 (16.0) n (%).

And the “TEAE: Patients with at least one event” value ([1]; in vivo)?
Its value is 25 (100.0) n (%).

And the “TEAE: Pyrexia” value ([1]; in vivo)?
Its value is 4 (16.0) n (%).

And the “TEAE: Vascular access site bruising” value ([1]; in vivo)?
The value was 3 (12.0) n (%).

What about the “Treatment-related TEAE: Anemia” value ([1]; in vivo) of the same substance?
Its value is 2 (8.0) n (%).

What about the “Treatment-related TEAE: Diarrhea” value ([1]; in vivo) of the same substance?
The value was 4 (16.0) n (%).

And the “Treatment-related TEAE: Dysgeusia” value ([1]; in vivo)?
Its value is 3 (12.0) n (%).

What about the “Treatment-related TEAE: Erythema” value ([1]; in vivo) of the same substance?
Its value is 2 (8.0) n (%).

What about the “Treatment-related TEAE: Fatigue” value ([1]; in vivo) of the same substance?
The value was 8 (32.0) n (%).

What about the “Treatment-related TEAE: Flushing” value ([1]; in vivo) of the same substance?
Its value is 2 (8.0) n (%).

What about the “Treatment-related TEAE: Hyperglycemia” value ([1]; in vivo) of the same substance?
Its value is 2 (8.0) n (%).

And the “Treatment-related TEAE: Infusion-related reactions” value ([1]; in vivo)?
Its value is 16 (64.0) n (%).

And the “Treatment-related TEAE: Patients with at least 1 event” value ([1]; in vivo)?
The value was 23 (92.0) n (%).

And the “Treatment-related adverse events of grade 3” value ([1]; in vivo)?
Its value is “one grade 3 adverse event”.

What about the “Vital signs, ECG, and laboratory values” ([1]; in vivo) of the same substance?
The value was “didn’t show a trend of changes”.

What about the “Recommended phase 2 dose (RP2D), monotherapy” value ([1]; in vivo, iv) of the same substance?
The value was 60 mg/m^2.

What about the “Median time to treatment discontinuation” value (advanced solid tumors; 12 patients of long-term follow-up study, range [7–74]) of the same substance?
Its value is 18 weeks.

And the “Stable disease at the end of the dose escalation study” value (advanced solid tumors; Efficacy Population (n = 20), after 6 weeks, RECIST V1.1)?
The value was 70%.

What about the “Disease stabilization over at least 4.1 months” value (from here on “Disease stabilization over”) (advanced solid tumors; Efficacy Population, Cohort 1 (20 mg/m^2)) of the same substance?
The value was 50%.

What about the “Disease stabilization over” value (advanced solid tumors; Efficacy Population, Cohort 2 (30 mg/m^2)) of the same substance?
The value was 33.3%.

And the “Disease stabilization over” value (advanced solid tumors; Efficacy Population, Cohort 3 (45 mg/m^2))?
The value was 50%.

And the “Disease stabilization over” value (advanced solid tumors; Efficacy Population, Cohort 4 (60 mg/m^2))?
Its value is 33.3%.

What about the “Partial or complete tumor responses” value (advanced solid tumors; Efficacy Population, RECIST V1.1) of the same substance?
The value was “No tumor responses were observed; also recorded: No partial or complete responses were observed”.

What about the “Stable disease at treatment discontinuation” value (advanced solid tumors; long-term follow-up, 5 of 12 patients) of the same substance?
The value was 41.7%.

And the “Progressive disease at treatment discontinuation” value (advanced solid tumors; long-term follow-up, 7 of 12 patients)?
Its value is 58.3%.

And the “Full-length peptide in the culture media” value [2]?
Its value is “no full-length peptide was found”.

And the “Duration of activity (inhibition of growth, increased apoptosis) after addition of the peptide” value (cell cultures)?
Its value is “up to five days”.

What about the “tmax Median [Min;Max]” value ([3]; 20 mg/m^2 i.v. infusion, first infusion day, plasma, primary PK population, n = 1) of the same substance?
The value was 2.02 [N/A] h.

And the “tmax Median [Min;Max]” value [3, 4]?
Its value is 2.98 [N/A] h.

And the CL [3, 4]?
The CL was 14,400 mL/h/m^2.

And the Vz [3, 4]?
Its Vz is 7970 mL/m^2.

What about the kel [3, 4] of the same substance?
Its kel is 1.81 h⁻¹.

And the “tmax Median [Min;Max]” value ([3]; 45 mg/m^2 i.v. infusion, first infusion day, plasma, primary PK population, median [min;max], n = 4)?
The value was 2.37 [1.32;2.82] h.

And the AUC0-t [3, 5]?
The AUC0-t was 1980 (427) h × ng/mL.

What about the AUC(0-inf) [3, 5] of the same substance?
Its AUC(0-inf) is 2200 (591) h × ng/mL.

What about the CL [3, 5] of the same substance?
The CL was 21,500 (6120) mL/h/m^2.

What about the Cmax [3, 5] of the same substance?
Its Cmax is 1150 (166) ng/mL.

What about the Vz [3, 5] of the same substance?
Its Vz is 13,100 (6830) mL/m^2.

And the kel [3, 5]?
Its kel is 2.25 (1.57) /h.

What about the “tmax Median [Min;Max]” value ([3]; 60 mg/m^2 i.v. infusion, first infusion day, plasma, primary PK population, median [min;max], n = 8) of the same substance?
Its value is 4.75 [1.60;9.12] h.

And the CL [3, 6]?
Its CL is 17,800 (5880) mL/h/m^2.

And the MRT0-inf [3, 6]?
Its MRT0-inf is 1.54 (0.66) h.

What about the Vz [3, 6] of the same substance?
Its Vz is 12,900 (5520) mL/m^2.

And the kel [3, 6]?
Its kel is 1.51 (0.46) /h.

And the AUC0-t [3, 7]?
Its AUC0-t is 3320 (1260) h × ng/mL.

And the Cmax [3, 7]?
The Cmax was 1320 (815) ng/mL.

What about the “Elimination half-life in blood” value ([3]; all dose levels (20, 30, 45, 60 mg/m^2)) of the same substance?
Its value is “less than 30 min”.

What about the AUC0-t ([3]; human, plasma, iv, 20 mg/m2) of the same substance?
The AUC0-t was 666 ng·h/mL.

And the Cmax ([3]; human, plasma, iv, 20 mg/m2)?
The Cmax was 468 ng/mL.

What about the AUC0-t ([3]; human, plasma, iv, 30 mg/m2) of the same substance?
Its AUC0-t is 1900 ng·h/mL.

And the AUC(0-inf) ([3]; human, plasma, iv, 30 mg/m2)?
Its AUC(0-inf) is 2080 ng·h/mL.

What about the Cmax ([3]; human, plasma, iv, 30 mg/m2) of the same substance?
Its Cmax is 720 ng/mL.

What about the MRT ([3]; human, plasma, iv, 30 mg/m2) of the same substance?
Its MRT is 36.7 min.

And the MRT ([3]; human, plasma, iv, 45 mg/m2)?
Its MRT is 53.3 min.

What about the AUC(0-inf) ([3]; human, plasma, iv, 60 mg/m2) of the same substance?
The AUC(0-inf) was 3700 ng·h/mL.
